Measured values: ChEMBL document CHEMBL3046670, “Synthesis of Esters, Amides, N-Alkylamides and N, N-Dialkylamides of 2, 3-Dimethyl-5-(2, 5-disubstituted phenylaminocarbonyl)-6-pyrazinecarboxylic Acid and Their Phytotoxicity” (1992)
The source made the active and inactive calls. The calls are words filed in the database; no cut-off is given here.

Legend:
Assay type in all cases: functional
Eleusine indica [1] = assay: Inhibition of Eleusine indica germination at 300 ppm after 5 days relative to control; settings: for inhibition at 300 ppm: 120 h
Eleusine indica [2] = assay: Inhibition of Eleusine indica seed germination at 50 ppm after 5 days relative to control; settings: for inhibition at 50 ppm: 120 h
Lactuca sativa [3] = assay: Inhibition of Lactuca sativa longifolia Lams (lettuce) seed germination at 100 ppm after 5 days relative to control; settings: for inhibition at 100 ppm: 120 h
Eleusine indica [4] = assay: Inhibition of Eleusine indica seed germination at 100 ppm after 5 days relative to control; settings: for inhibition at 100 ppm: 120 h
Lactuca sativa [5] = assay: Inhibition of Lactuca sativa longifolia Lams (lettuce) seed germination at 300 ppm after 5 days relative to control; settings: for inhibition at 300 ppm: 120 h
Lactuca sativa [6] = assay: Inhibition of Lactuca sativa longifolia Lams (lettuce) seed germination at 50 ppm after 5 days relative to control; settings: for inhibition at 50 ppm: 120 h
Echinochloa crus-galli = assay: Herbicidal activity against Echinochloa crus-galli (barnyard grass) at 50 g a.i./a measured after 2 weeks
Cyperus serotinus = assay: Herbicidal activity against Cyperus serotinus at 50 g a.i./a measured after 3 weeks
Sagittaria pygmaea = assay: Herbicidal activity against Sagittaria pygmaea at 50 g a.i./a measured after 3 weeks
[7] = system: Schoenoplectiella juncoides; assay: Herbicidal activity against Schoenoplectiella juncoides at 50 g a.i./a applied at one-leaf stage by foliar application measured after 3 weeks
Oryza sativa = assay: Herbicidal activity against Oryza sativa (rice) at 50 g a.i./a applied at one-leaf stage by foliar application measured after 3 weeks
[8] = system: Schoenoplectiella juncoides; assay: Pre-emergence herbicidal activity against Schoenoplectiella juncoides at 50 g a.i./a measured after 3 weeks

Row | SMILES | inhibition (Eleusine indica [1]) | inhibition (Eleusine indica [2]) | inhibition (Lactuca sativa [3]) | inhibition (Eleusine indica [4]) | inhibition (Lactuca sativa [5]) | inhibition (Lactuca sativa [6]) | inhibition at 300 ppm (Eleusine indica [1]) | inhibition at 100 ppm (Lactuca sativa [3]) | inhibition at 100 ppm (Eleusine indica [4]) | inhibition at 300 ppm (Lactuca sativa [5]) | also measured
1 | Cc1ccc(C)c(NC(=O)c2nc(C)c(C)nc2C(=O)OCCC(C)C)c1 | inactive | inactive | inactive | inactive | inactive | inactive | – | – | – | – | –
2 | Cc1ccc(C)c(NC(=O)c2nc(C)c(C)nc2C(=O)NCCC(C)C)c1 | – | – | – | – | – | – | 40% | 41% | 34% | 47% | inhibition at 50 ppm (Eleusine indica [2]): 32%; Activity (Echinochloa crus-galli): 70%; Activity (Cyperus serotinus): 80%; Activity (Sagittaria pygmaea): 85%; Activity [7]: 20%; Activity (Oryza sativa): 99%; inhibition at 50 ppm (Lactuca sativa [6]): 43%; Activity [8]: 100%
3 | CCCCCOC(=O)c1nc(C)c(C)nc1C(=O)Nc1cc(C)ccc1C | inactive | inactive | inactive | inactive | inactive | inactive | – | – | – | – | –
4 | CCCN(CCC)C(=O)c1nc(C)c(C)nc1C(=O)Nc1cc(C)ccc1C | inactive | inactive | inactive | inactive | inactive | inactive | – | – | – | – | –
5 | CCCCCN(CCCCC)C(=O)c1nc(C)c(C)nc1C(=O)Nc1cc(C)ccc1C | inactive | inactive | inactive | inactive | inactive | inactive | – | – | – | – | –
6 | CCOC(=O)c1nc(C)c(C)nc1C(=O)Nc1cc(Cl)ccc1Cl | – | – | – | inactive | – | – | – | – | – | – | –
7 | Cc1ccc(C)c(NC(=O)c2nc(C)c(C)nc2C(=O)NC(C)C)c1 | – | – | – | – | – | – | 36% | 66% | 30% | 68% | inhibition at 50 ppm (Eleusine indica [2]): 30%; Activity (Echinochloa crus-galli): 0%; Activity (Cyperus serotinus): 0%; Activity (Sagittaria pygmaea): 0%; Activity [7]: 30%; Activity (Oryza sativa): 70%; inhibition at 50 ppm (Lactuca sativa [6]): 58%; Activity [8]: 50%
8 | Cc1ccc(C)c(NC(=O)c2nc(C)c(C)nc2C(=O)OC(C)C)c1 | – | – | – | – | – | – | – | – | 20% | – | –
9 | CCN(CC)C(=O)c1nc(C)c(C)nc1C(=O)Nc1cc(C)ccc1C | inactive | inactive | inactive | inactive | inactive | inactive | – | – | – | – | –
10 | CCCCNC(=O)c1nc(C)c(C)nc1C(=O)Nc1cc(C)ccc1C | – | – | – | – | – | – | 40% | 35% | 39% | 34% | Activity (Echinochloa crus-galli): 80%; Activity (Cyperus serotinus): 100%; Activity (Sagittaria pygmaea): 90%; Activity [7]: 60%; Activity (Oryza sativa): 100%; Activity [8]: 100%
11 | Cc1nc(C(=O)Nc2cc(Cl)ccc2Cl)c(C(=O)OC(C)C)nc1C | – | – | – | inactive | – | – | – | – | – | – | –
12 | CCC(C)OC(=O)c1nc(C)c(C)nc1C(=O)Nc1cc(C)ccc1C (stereo not given) | – | – | – | – | – | – | 15% | 32% | 13% | 36% | –
13 | CCC(C)NC(=O)c1nc(C)c(C)nc1C(=O)Nc1cc(C)ccc1C (stereo not given) | – | – | – | – | – | – | 44% | 65% | 41% | 72% | inhibition at 50 ppm (Eleusine indica [2]): 38%; Activity (Echinochloa crus-galli): 70%; Activity (Cyperus serotinus): 95%; Activity (Sagittaria pygmaea): 75%; Activity [7]: 50%; Activity (Oryza sativa): 99%; inhibition at 50 ppm (Lactuca sativa [6]): 61%; Activity [8]: 100%
14 | Cc1ccc(C)c(NC(=O)c2nc(C)c(C)nc2C(N)=O)c1 | – | – | – | – | – | – | – | – | 20% | – | –
15 | CCCNC(=O)c1nc(C)c(C)nc1C(=O)Nc1cc(C)ccc1C | – | – | – | – | – | – | 47% | 56% | 47% | 54% | inhibition at 50 ppm (Eleusine indica [2]): 42%; Activity (Echinochloa crus-galli): 50%; Activity (Cyperus serotinus): 90%; Activity (Sagittaria pygmaea): 0%; Activity [7]: 40%; Activity (Oryza sativa): 95%; inhibition at 50 ppm (Lactuca sativa [6]): 43%; Activity [8]: 80%
16 | CCCC(C)OC(=O)c1nc(C)c(C)nc1C(=O)Nc1cc(C)ccc1C (stereo not given) | – | inactive | – | – | – | inactive | 33% | 44% | 32% | 50% | –
17 | Cc1ccc(C)c(NC(=O)c2nc(C)c(C)nc2C(=O)OCC(C)C)c1 | inactive | inactive | inactive | inactive | inactive | inactive | – | – | – | – | –
18 | Cc1ccc(C)c(NC(=O)c2nc(C)c(C)nc2C(=O)N(C)C)c1 | inactive | inactive | inactive | inactive | inactive | inactive | – | – | – | – | –
19 | CCCCN(CCCC)C(=O)c1nc(C)c(C)nc1C(=O)Nc1cc(C)ccc1C | inactive | inactive | inactive | inactive | inactive | inactive | – | – | – | – | –
20 | CCCOC(=O)c1nc(C)c(C)nc1C(=O)Nc1cc(Cl)ccc1Cl | – | – | – | inactive | – | – | – | – | – | – | –
21 | CCCCOC(=O)c1nc(C)c(C)nc1C(=O)Nc1cc(C)ccc1C | inactive | inactive | inactive | inactive | inactive | inactive | – | – | – | – | –
22 | COC(=O)c1nc(C)c(C)nc1C(=O)Nc1cc(Cl)ccc1Cl | – | – | – | inactive | – | – | – | – | – | – | –
23 | Cc1ccc(C)c(NC(=O)c2nc(C)c(C)nc2C(=O)NCC(C)C)c1 | – | – | – | – | – | – | 50% | 59% | 47% | 62% | inhibition at 50 ppm (Eleusine indica [2]): 53%; Activity (Echinochloa crus-galli): 90%; Activity (Cyperus serotinus): 100%; Activity (Sagittaria pygmaea): 95%; Activity [7]: 80%; Activity (Oryza sativa): 99%; inhibition at 50 ppm (Lactuca sativa [6]): 55%; Activity [8]: 10%
